The supplement of paper PMC10307832

Tests used:
Assay in all cases: relative viability (nuclei count vs DMSO), 5 days (fraction); higher = more cells survive
[1] = compound: CC1(C)CNc2cc(NC(=O)c3cccnc3NCc3ccncc3)ccc21 [Motesanib] + O=C(c1cc(Cc2n[nH]c(=O)c3ccccc23)ccc1F)N1CCN(C(=O)C2CC2)CC1 [Olaparib] (partner 8 µM)
Method in brief: (§1)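 Lung cancer cell lines were seeded in 1536-well plates and dosed by pin tool the next day, with either a single drug or a fixed anchor-drug dose combined with five library-drug doses (not always all listed) spaced in √10 steps. Five days later, one step fixed the cells and stained their nuclei (final 0.05% Triton X-100, 1% formaldehyde, 1 ug/ml Hoechst), and nuclei were counted on 4× images. Relative viability is the nuclei count in treated wells divided by the count in vehicle wells, and each value is the median of duplicate plates.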

[2] = compound: C[C@@]1(C(=O)Nc2ccc(F)nc2)CCCN1c1nc(Nc2cc(C3CC3)n[nH]2)c2cccn2n1 + CC(C)C[C@H](NC(=O)[C@H](Cc1ccccc1)NC(=O)c1cnccn1)B(O)O [Bortezomib] (partner 0.002 µM)
Method in brief: as §1

[3] = compound: CC1(C)CNc2cc(NC(=O)c3cccnc3NCc3ccncc3)ccc21 [Motesanib] + Cc1nc(NC(=O)N2CCC[C@H]2C(N)=O)sc1-c1ccnc(C(C)(C)C(F)(F)F)c1 [Alpelisib] (partner 2 µM)
Method in brief: as §1

[4] = compound: C[C@@]1(C(=O)Nc2ccc(F)nc2)CCCN1c1nc(Nc2cc(C3CC3)n[nH]2)c2cccn2n1 + C[C@]1(O)C[C@@H](c2nc(-c3ccc4ccc(-c5ccccc5)nc4c3)c3c(N)nccn32)C1 [Linsitinib] (partner 1 µM)
Method in brief: as §1

Cell Line	relative viability ([1]; first compound 0.01 µM)	relative viability ([1]; first compound 0.03162 µM)	relative viability ([1]; first compound 0.1 µM)	relative viability ([1]; first compound 0.3162 µM)	relative viability ([1]; first compound 1 µM)	relative viability ([2]; first compound 0.04 µM)	relative viability ([2]; first compound 0.1265 µM)	relative viability ([2]; first compound 0.4 µM)	relative viability ([2]; first compound 1.265 µM)	relative viability ([3]; first compound 0.01 µM)	relative viability ([3]; first compound 0.03162 µM)	relative viability ([3]; first compound 0.1 µM)	relative viability ([3]; first compound 0.3162 µM)	relative viability ([3]; first compound 1 µM)	relative viability ([4]; first compound 0.04 µM)	relative viability ([4]; first compound 0.1265 µM)	relative viability ([4]; first compound 0.4 µM)	relative viability ([4]; first compound 1.265 µM)
SW 1573	0.504	0.485	0.42	0.588	0.504	0.894	0.611	0.7	0.716	0.825	0.759	0.75	0.67	0.821	0.914	0.665	0.656	0.806
NCI-H727	0.937	0.614	0.761	0.779	0.6	0.763	0.385	0.339	0.338	0.599	0.678	0.504	0.514	0.602	0.349	0.135	0.232	0.283
NCI-H441	0.542	0.452	0.436	0.627	0.496	0.567	0.285	0.276	0.463	0.699	0.998	1.03	0.636	0.847	0.435	0.417	0.476	0.543
LOU-NH91	0.925	0.98	0.88	0.943	0.959	0.482	0.519	0.481	0.493	0.746	0.759	0.708	0.707	0.802	0.937	1.12	0.82	0.977
NCI-H3122	0.581	0.644	0.644	0.632	0.683	0.993	1.03	1.04	0.944	0.789	0.79	0.915	0.921	0.946	1.04	1.1	1.01	1.06
NCI-H460	0.413	0.396	0.484	0.446	0.402	1.13	0.991	0.892	0.93	0.567	0.495	0.484	0.424	0.478	0.834	0.667	0.708	0.82
NCI-H650	0.446	0.382	0.42	0.39	0.426	0.699	0.762	0.605	0.46	0.925	0.85	1.14	1.09	1.08	1.19	0.706	0.804	0.721
NCI-H661	0.748	0.76	0.784	0.749	0.774	0.924	1.08	0.653	0.819	0.356	0.608	0.683	0.641	0.882	0.63	0.809	0.571	0.545
NCI-H1734	0.54	0.686	0.72	0.636	0.565	0.856	0.781	0.641	0.577	0.711	0.608	0.719	0.72	0.746	0.771	0.722	0.794	0.903
LXF-289	1.04	0.992	0.926	1.21	1.12	1.01	0.929	0.961	1	0.983	1.05	1.06	1.05	1.04	1.02	0.947	0.936	1.02
H3255	0.564	0.601	0.576	0.585	0.643	0.973	1.02	0.719	0.669	0.78	0.7	0.762	0.684	0.771	1.14	1.03	0.833	0.986
201T	0.803	0.828	0.852	0.88	0.872	1.1	0.958	1.01	0.957	1.08	1.05	1.01	0.857	1.06	0.97	0.97	0.908	1.04
NCI-H2126	0.892	0.885	0.899	0.892	1	1.08	0.861	0.769	0.746	0.77	0.723	0.724	0.768	0.699	0.736	0.685	0.712	0.771
HOP-62	0.47	0.38	0.389	0.564	0.616	0.752	0.67	0.704	1.02	0.91	0.663	0.922	1.3	1.15	0.927	0.773	1.06	1.06
CAL-12T	0.674	0.731	0.699	0.683	0.736	1.12	0.826	0.957	0.734	1.22	1.31	1.26	1.44	1.11	0.827	0.849	0.78	0.817
NCI-H520	0.319	0.32	0.294	0.297	0.392	0.621	0.446	0.501	0.483	0.864	0.899	0.879	0.871	0.768	0.951	0.867	0.915	1.07
NCI-H1755	0.795	0.877	0.774	0.923	0.9	0.957	0.838	0.85	0.881	0.879	0.905	1.02	1.03	0.909	1.01	0.954	0.895	1.04
NCI-H2023	0.469	0.409	0.515	0.496	0.425	0.912	0.821	0.62	0.244	0.628	0.669	0.68	0.619	0.648	0.699	0.619	0.537	0.657
